The values that follow come from PubChem BioAssay (NCI).

Molecules are shown by their SMILES.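 Protocol summary: plate cells (96-well), add compound at 5 concentrations, incubate 48 h, interpolate endpoints linearly. GI50: concentration for 50% inhibition of growth. TGI denotes the concentration required for complete inhibition of growth.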

Test systems include COLO 205 colon; HT29 colon; LOX IMVI melanoma; M14 melanoma; MDA-MB-435; SF-295 CNS; SK-MEL-5 melanoma; SNB-19 CNS; UACC-62 melanoma; UO-31 renal.
What all share (assay): NCI-60 cell line screen, 48 h

Turning to `O=C(/C=C/C=C/c1ccc2c(c1)OCO2)N/N=C\c1ccc(O)cc1O`, the GI50 was 2.31 µM in the experiment on COLO 205 colon; 3.78 µM with HT29 colon; 1.18 µM with LOX IMVI melanoma; 1.67 µM in the experiment with M14 melanoma; 4.35 µM in the experiment on MDA-MB-435; 0.925 µM in the experiment on SF-295 CNS. Moreover, the GI50 in the experiment on SK-MEL-5 melanoma was 1.63 µM; with SNB-19 CNS, 2.79 µM; in the experiment with UACC-62 melanoma it was 1.63 µM; in the experiment with UO-31 renal, 1.47 µM. Further, the TGI in the experiment with COLO 205 colon stood at 13.8 µM; in the experiment with HT29 colon, 26.2 µM; in the experiment on LOX IMVI melanoma, 10.1 µM; with M14 melanoma, 11.5 µM; in the experiment on MDA-MB-435 it was 19 µM; with SF-295 CNS, 12.9 µM. The TGI was 3.87 µM in the experiment on SK-MEL-5 melanoma, 24.2 µM with SNB-19 CNS, 7.08 µM in the experiment with UACC-62 melanoma and 8.75 µM with UO-31 renal.
Take `O=C1OCC2=C1C(c1cccc(Cl)c1)c1cc3c(cc1N2CCO)CCC3` (stereo not given): the GI50 was 0.0401 µM with COLO 205 colon; 0.0313 µM in the experiment on HT29 colon; 0.0661 µM with LOX IMVI melanoma; 0.0366 µM with M14 melanoma; 0.02 µM in the experiment with MDA-MB-435; 0.0301 µM in the experiment with SF-295 CNS. For the same compound, the GI50 in the experiment on SK-MEL-5 melanoma was 0.0291 µM; in the experiment on SNB-19 CNS it was 0.0644 µM; in the experiment with UACC-62 melanoma, 0.0427 µM; in the experiment with UO-31 renal, 0.0515 µM. Further, the TGI in the experiment with COLO 205 colon was 0.309 µM; in the experiment with HT29 colon it was 0.095 µM; in the experiment with LOX IMVI melanoma, 13.8 µM; in the experiment on M14 melanoma, 4.46 µM; in the experiment on MDA-MB-435, 0.0491 µM; in the experiment with SF-295 CNS, 11.9 µM. Also, the TGI is 0.28 µM with SK-MEL-5 melanoma, 17.3 µM with SNB-19 CNS, 15.3 µM in the experiment with UACC-62 melanoma and 14.2 µM in the experiment with UO-31 renal.
With `O=C(CN1CCN(C(=O)c2ccco2)CC1)Nc1ccc(Cl)cc1C(=O)c1ccccc1Cl`, the GI50 was 7.32 µM in the experiment on COLO 205 colon; 6.23 µM in the experiment with HT29 colon; 11.1 µM in the experiment with LOX IMVI melanoma; 12.5 µM in the experiment with M14 melanoma; 5.83 µM in the experiment with MDA-MB-435; 3.13 µM in the experiment on SF-295 CNS. Moreover, the GI50 in the experiment on SK-MEL-5 melanoma was 5.34 µM; in the experiment with SNB-19 CNS, 12.1 µM; with UACC-62 melanoma, 8.85 µM; in the experiment with UO-31 renal, 2.28 µM. Moreover, the TGI came to 23.7 µM with COLO 205 colon; 22.3 µM with HT29 colon; 23.1 µM in the experiment on LOX IMVI melanoma; 28.1 µM in the experiment on M14 melanoma; 20.6 µM in the experiment on MDA-MB-435; 15.4 µM in the experiment on SF-295 CNS. Moreover, the TGI with SK-MEL-5 melanoma amounted to 18.6 µM; with SNB-19 CNS, 94.7 µM; in the experiment on UACC-62 melanoma, 23.4 µM; in the experiment with UO-31 renal it was 14.9 µM.
Take `COc1cc2c(cc1-c1coc3cc(O)ccc3c1=O)OCO2`: the TGI in the experiment with COLO 205 colon was more than 100 µM; in the experiment on HT29 colon, more than 100 µM; in the experiment with LOX IMVI melanoma, more than 100 µM; in the experiment with M14 melanoma, more than 100 µM; with MDA-MB-435 it was more than 100 µM; in the experiment with SF-295 CNS, 38.9 µM. The TGI was more than 100 µM in the experiment with SK-MEL-5 melanoma, 43.1 µM in the experiment on SNB-19 CNS, 63.9 µM in the experiment with UACC-62 melanoma and 58.4 µM in the experiment with UO-31 renal.
On to `CN(C)CCCCNc1ccc(NCCCCN(C)C)c2c1C(=O)c1c(O)ccc(O)c1C2=O`, for which the GI50 with COLO 205 colon is 13.6 µM; in the experiment with HT29 colon, 1.19 µM; in the experiment with LOX IMVI melanoma it was 1.42 µM; with M14 melanoma, 1.81 µM; in the experiment with MDA-MB-435, 13.3 µM; in the experiment on SF-295 CNS, 1.75 µM. Also, the GI50 with SK-MEL-5 melanoma is 13.5 µM; in the experiment with SNB-19 CNS, 13.2 µM; in the experiment with UACC-62 melanoma, 15.3 µM; with UO-31 renal it was 1.43 µM. In addition, the TGI with COLO 205 colon was determined as 28.6 µM; with HT29 colon it was 2.86 µM; in the experiment with LOX IMVI melanoma it was 2.73 µM; with M14 melanoma, 3.2 µM; with MDA-MB-435, 26.1 µM; in the experiment with SF-295 CNS, 3.3 µM. In addition, the TGI with SK-MEL-5 melanoma stood at 26.3 µM; with SNB-19 CNS it was 26 µM; with UACC-62 melanoma, 29.1 µM; in the experiment with UO-31 renal it was 2.93 µM.
`COc1cc2c(cc1[N+](=O)[O-])C(=O)C(Br)(Br)CCC2`: the TGI came out at 3.57 µM with COLO 205 colon; 11.2 µM with HT29 colon; 1.97 µM in the experiment with LOX IMVI melanoma; 5.34 µM with M14 melanoma; 10.9 µM in the experiment on MDA-MB-435; 19.4 µM in the experiment on SF-295 CNS. For the same compound, the TGI with SK-MEL-5 melanoma amounted to 3.77 µM; in the experiment on SNB-19 CNS, 19.5 µM; with UACC-62 melanoma, 10 µM; with UO-31 renal, 3.23 µM.
Consider `Cc1cc(C)c2c(c1)N(C)c1ncnc(-n3cnc4cc(C)ccc43)c1CC2C` (stereo not given), for which the GI50 in the experiment on COLO 205 colon was 3.32 µM; with HT29 colon, 3.13 µM; in the experiment with LOX IMVI melanoma, 4.82 µM; in the experiment on M14 melanoma it was 2.6 µM; in the experiment on MDA-MB-435 it was 2.44 µM; in the experiment on SF-295 CNS, 2.89 µM. The GI50 in the experiment with SK-MEL-5 melanoma was 2.24 µM; in the experiment on SNB-19 CNS it was 4.22 µM; in the experiment with UACC-62 melanoma it was 3.13 µM; with UO-31 renal, 2.5 µM. In addition, the TGI in the experiment with COLO 205 colon was found to be 10.5 µM; in the experiment on HT29 colon, 10.5 µM; in the experiment with LOX IMVI melanoma it was 33.4 µM; in the experiment with M14 melanoma, 11.2 µM; in the experiment with MDA-MB-435, 10.6 µM; with SF-295 CNS it was 12 µM. Further, the TGI in the experiment on SK-MEL-5 melanoma was 5.34 µM; in the experiment with SNB-19 CNS, more than 100 µM; with UACC-62 melanoma it was 18.4 µM; in the experiment on UO-31 renal, 16.2 µM.
